The values that follow come from publication PMC10380766, “Development of Hydrophobic Cell-Penetrating Stapled Peptides as Drug Carriers” (International Journal of Molecular Sciences, 2023).

Series [1] in a line: CD spectroscopy, secondary structure (R value). The settings on record: 10% acetonitrile in 20 mM phosphate buffer pH 7.4, peptide 50 µM, ratio of CD signal intensities at 222 and 208 nm. It is filed as physicochemical. How it is done:
CD measurements were performed to analyze the preferred secondary structures of the synthesized peptides F-1–F-4 (10% acetonitrile in 20 mM phosphate buffer, pH 7.4) (Figure 2). […] These characteristic Cotton effects indicated the presence of a helical structure in F-1. […] To further evaluate the dominant secondary structures of the peptides, a parameter called the R value (θ222/θ208) was calculated. The R value represents the ratio of the CD signal intensities at 222 nm and 208 nm, respectively. For the peptides F-1, F-2, F-3, and F-4, the R values were determined to be 0.72, 1.83, 0.95, and 1.58, respectively. Based on previous studies, these R values indicate that the dominant secondary structures of all the peptides were α-helices.
CD spectra were recorded with a JASCO J-1100 CD spectrometer using a 1.0 mm path length cell. The data are expressed in terms of [θ]; i.e., total molar ellipticity (deg cm^2 dmol^−1). Peptides were dissolved in 10% MeCN in 20 mM phosphate buffer solution at 50 µM concentrations. Each parameter was: wavelength: 190–260 nm; bandwidth: 1 nm; response: 1 s; speed: 50 nm min^−1; accumulations: 3 times; and path length: […].

A short description of series [2]: DLS measurement of peptide/pDNA complexes (size, PDI). The settings on record: peptide/pDNA complex, mean ± SD of 3 measurements; for Size: cumulant method. It counts as physicochemical. The method, then: (§1) The ability of peptides F-1–F-4 to deliver pDNA was evaluated using complexes between the peptides and pDNA in 10 mM Hepes buffer (pH 7.3). The zeta potentials and sizes of the peptide/pDNA complexes prepared at various charge ratios were determined (Table 2). The size of the F-1 peptide/pDNA complexes at a charge ratio of 2 was 3364 nm, and the sizes decreased with an increase in the charge ratios (Table 2). The sizes of the peptide/pDNA complexes were in the order of several hundred nm, which is considered to be a useful size for the delivery of pDNA, except for the complex with F-1 at N/P = 2, which was defined as the residual molar ratio of the amino groups in polycations of peptides (N) to the phosphate groups in pDNA (P). […] Thus, we examined the complexes of F-1–F-4 at N/P = 8 to evaluate the effect of the stapling of TP10 on the ability to deliver pDNA.
(§2) Each 1 mM peptide solution in DMSO and pDNA was dissolved separately in 10 mM Hepes buffer (pH 7.3). To form peptide/pDNA complexes, peptide solutions of various concentrations were added to the pDNA solution in 2-fold excess. The final pDNA concentration was adjusted to […]. After the complex solutions were stored at room temperature for 15 min, the complex solutions were added. The charge ratio was defined as the residual molar ratio of the amino group of amino acid in the peptide to the phosphate group in the pDNA.
(§3) The zeta-potentials of the peptide/pDNA complexes in 10 mM Hepes buffer (pH 7.3) were evaluated by the laser-Doppler electrophoresis method using Nano ZS (ZEN3600, Malvern Instruments, Ltd., Malvern, UK) with a He–Ne ion laser (633 nm). Light scattering data were obtained at a detection angle of 173° and temperature of 25 °C, and were subsequently analyzed by the cumulant method to obtain the hydrodynamic diameters, polydispersity indices (PDI) (m/G^2) and zeta-potential of the complexes. Results were presented as the mean and standard deviation of 3 measurements (Table 2).

Series [3] is described as follows: Zeta-potential measurement of peptide/pDNA complexes. It is filed as physicochemical. The note with it: peptide/pDNA complex, laser-Doppler electrophoresis, 10 mM Hepes pH 7.3, 25 °C, mean ± SD of 3 measurements. The method, then: as §1, §2, §3
For series [4], the system named is HEK293 cells. As to the kind of experiment: Cellular-uptake mechanism: endocytosis inhibitors and 4 °C. The settings on record: peptide 5 µM, flow cytometry. It counts as cell-based. An excerpt:
To inhibit specific endocytic pathways, three different inhibitors were used: amiloride, nystatin, and sucrose. Each inhibitor targets a distinct endocytic pathway: amiloride inhibits […] (a form of endocytosis where cells engulf fluid and solutes); nystatin inhibits caveolae-mediated endocytosis (a process involving small invaginations in the cell membrane called caveolae); and sucrose inhibits clathrin-mediated endocytosis (a mechanism in which the protein clathrin forms coated pits on the cell surface to internalize molecules). As a control, a peptide called nona-arginine (R9) with CF […] was used. This peptide is known to enter cells via endocytosis. The uptake of CF-R9 with that of the parent peptide F-1 and the stapled peptide F-3 was compared.
HEK293 cells were seeded in 24-well plates at a density of 200,000 cells/well and cultured in DMEM for 23 h. After the medium had been replaced with fresh medium containing 10% FBS in the absence or presence of amiloride (5 mM), sucrose (0.4 M), or nystatin (25 μg/mL), the cells were pre-incubated at 37 °C for 30 min. Then, the cells were treated with the relevant peptide (peptide concentration; 5 µM) and incubated for 30 min at 37 °C. […] Then, the cells were analyzed by a BD accuri C6 Plus flow cytometer (BD Bioscience, New Jersey). […]

Series [5] concerns HEK293 cells. As to the kind of experiment: Cellular uptake of peptide/Cy5-pDNA complexes by flow cytometry. It is filed as cell-based. The settings on record: peptide/Cy5-pDNA complex at N/P = 8, HEK293 cells, flow cytometry 488 nm excitation, n = 4 (Figure S1). The method, then: (§4) The intracellular uptake of Cy5-labeled pDNA complexed with peptides F-1–F-4 was evaluated in […] cells. The fluorescence intensity of Cy5 incorporated into […] was quantified using flow cytometry at 24 h after administration (Figure 5). […] The stability of the peptide/pDNA complex was then evaluated by adding the negatively charged competitive inhibitor, dextran sulfate.
Figure 5 Cellular uptake of peptide/Cy5-pDNA complexes at N/P = 8 in HEK293 cells. The cellular uptake ability was determined by flow cytometry. The cells were excited with a 635 nm light for detecting Cy5-pDNA. Error bars represent the mean ± standard deviation, n = 4.
Each 1 mM peptide solution in DMSO and pDNA was dissolved separately in 10 mM Hepes buffer (pH 7.3). To form peptide/pDNA complexes, peptide solutions of various concentrations were added to the pDNA solution in 2-fold excess. The final pDNA concentration was adjusted to 33.3 mg/mL. After the complex solutions were stored at room temperature for 15 min, the complex solutions were added. […]
HEK293 cells were seeded on 24-well culture plates (100,000 cells/well) and incubated overnight in 500 μL of DMEM. […] The cell pellets obtained were suspended in PBS and the cells were analyzed by a BD accuri C6 Plus flow cytometer (BD Bioscience, New Jersey).
Figure S1. […] Cellular uptake ability was determined by flow cytometry. […]
For orientation: In flow cytometry, cells or beads pass a laser one at a time.

Series [6] concerns pDNA. As to the kind of experiment: Displacement assay with dextran sulfate (gel retardation). The settings on record: N/P = 8, 100 ng pDNA, 30 min at 37 °C, agarose gel. It is filed as physicochemical. How it is done: as §4
Complex with 100 ng of pDNA and peptide at N/P ratio = 8 were incubated for 30 min at 37 °C in the presence of dextran sulfate (sodium salt, Wako, Japan) at various concentrations ranging 0, 0.05, 0.1, 0.5, and 1 mg/mL. After the incubation, the samples were analyzed on agarose gel and the gel was stained with SYBR Gold (Thermo Fisher Scientific, Waltham, MA, USA).
Figure S1. Cellular uptake of peptide/Cy5-pDNA complexes at N/P = 8 with HEK293 cells. Cellular uptake ability was determined by flow cytometry. The cells were excited with a 488 nm light from an LD laser for detecting FAM-p eptide. Error bars represent the mean±standard deviation, n = 4.
Dextran sulfate Dextran sulfate Dextran sulfate Dextran sulfate […]
Figure S2. Physicochemical characterization of peptide/pDNA complexes at N/P = 8 with dextran sulfate. Gel retardation assay for evaluation of the stability and the dissociation of the peptide/pDNA complexes upon treatment with dextran sulfate at different concentrations ranging from 0 to 1 mg/mL. […]

Setting [7] is: N/P ratio 2, 10 mM Hepes pH 7.3, 25 °C.
[8] abbreviates: N/P ratio 4, 10 mM Hepes pH 7.3, 25 °C.
Where [9] appears, read: N/P ratio 8, 10 mM Hepes pH 7.3, 25 °C.

Consider “CF-XAGYLLGKINLKALAAS5*AKKS5*L (sidechain bridge or staple) [F-3, C-terminal stapled TP10 analog, Leu and Ile replaced with S5 residues, CF-labelled]”, for which the “R value (θ222/θ208)” value in series [1] is listed as 0.95. The Size is 391 ± 8 nm in series [2] (setting [7]), 352 ± 57 nm in series [2] (setting [8]) and 324 ± 53 nm in series [2] (setting [9]). The PDI in series [2] (setting [7]) is given as 0.417 ± 0.049; in series [2] (setting [8]), 0.366 ± 0.054; in series [2] (setting [9]), 0.399 ± 0.083. For the same substance, the Zeta-Potential in series [3] (N/P ratio 2) was found to be 22.9 ± 1.1 mV; in series [3] (N/P ratio 4), 18.0 ± 1.7 mV; in series [3] (N/P ratio 8), 20.6 ± 3.0 mV. In series [4] (30 min at 4 °C compared with 37 °C), the “cellular uptake when incubated at 4 °C” value was “significantly inhibited”. The “cellular uptake when treated with endocytosis inhibitors” value in series [4] (30 min at 37 °C after 30 min pre-incubation with amiloride (5 mM), sucrose (0.4 M) or nystatin (25 μg/mL), n=3) is on record as “significantly inhibited”. Also, the “fluorescence from peptide detected by CF after adding peptide/Cy5-pDNA complex” value in series [5] is “strongest fluorescence”. Also, the “concentration of dextran sulfate at which the peptide/pDNA complex dissociated” value in series [6] (dextran sulfate 0, 0.05, 0.1, 0.5, 1 mg/mL, SYBR Gold (Figure S2)) is reported as 0.5 mg/mL. Also, in series [6] (dextran sulfate 0-1 mg/mL), the “stability of the peptide/pDNA complex against dextran sulfate” value was “less stable than the other complexes”.
